This note sets out measurements from US7544476B1, “Identifying cancers sensitive to treatment with inhibitors of notch signaling” (AVEO Pharmaceuticals, Inc., priority 2008, dated 2009).

Assay [1] relates to mouse tumors that did not exhibit elevated Notch1 expression. Briefly: Cell viability assay on disaggregated retroviral-induced tumors treated with GSI. The settings on record: mouse tumors without elevated Notch1 expression. The class given is cell-based. Here is the method:
(§1) To perform the analyses on the retroviral-induced tumors, tumor-bearing animals were euthanized, tumors were collected and 0.2 g pieces were disaggregated using 4 mg/ml collagenase in RPMI media for 2 hours at 37° C. Cells were further disaggregated by passage through an 18 G needle 5-10 times. Single cells in suspension were aspirated in the supernatant for further analysis. For cell viability assays, single cells were re-seeded at 100,000 cell per well in 12-well plates in RPMI media supplemented with 10% FBS, 1% PenStrep, and 0.01 μM Beta estradiol. Cells were then treated for 48 hours with 1, 3 or 10 μM GSI (Sigma L-685,458) or vehicle control. Cell viability and apoptosis were assessed using Guava PCA-96 Viacount Flex reagent (Cat. No. 4700-0060) and measured using a Guava PCA-96 instrument, according to manufacturer's protocol. To measure mRNA expression levels, fresh tumor samples were collected, RNA was prepared using standard protocols, and microarray gene expression profile analysis was performed using Agilent cDNA microarray chips according to manufacturer's recommended protocols. Relative expression of HeyL and other genes was calculated by comparison to a universal mouse reference RNA sample from Stratagene (Universal Mouse Reference RNA Cat. No. 740100). […]

The test system of assay [2] is HT-29 colon cancer cell line. Description: Notch target gene expression by qRT-PCR after treatment with gamma-secretase inhibitor. The format is cell-based, human. Here is the method: (§2) Cells were seeded into 6-well plates in 2 mL of media. Replicates wells of cells treated with 1 μM, 3 μM, and 6 μM Gamma Secretase Inhibitor (GSI; Sigma L-685,458) or DMSO (Sigma D2650) (vehicle control) immediately after seeding. Cells were incubated at 37° C. 5% CO2 for 20 hours after treatment, then collected, rinsed with PBS (Invitrogen 14040-133), and cell pellets were frozen on dry ice and stored at −80° C. Subsequently, RNA was prepared by hand using the Qiagen RNeasy™ miniprep columns (Qiagen GR8RNA) and qRT-PCR performed to analyze Notch target gene expression according to standard protocol (Qiagen Quantitect SYBR GREEN RT-PCR kit 204245). Quantitative RT-PCR was run on Applied Biosystems 7900HT Sequence Detection System. Results were analyzed using the comparative Ct method. Beta Actin was used as the housekeeping gene and Stratagene Universal Human Reference RNA (Stratagene Cat. No. 740000) was used as an external reference sample to determine the level of expression of the Notch target genes Hes1, Hes5, Hes6, Hes7, Hey1, Hey2, HeyL, and Helt.
Background: In qPCR the cycle at which signal appears reflects the starting amount.

Assay [3] deals with LS-1034 colon cancer cell line. The description is as above. The class given is cell-based, human. Here is the method:
as §2

Assay [4] deals with mouse tumors with enhanced expression of Notch1 caused by Mo-MuLV integration near the Notch1 locus. Briefly: Cell viability assay on disaggregated retroviral-induced tumors treated with GSI. The class given is cell-based. Here is the method: To perform the analyses on the retroviral-induced tumors, tumor-bearing animals were euthanized, tumors were collected and 0.2 g pieces were disaggregated using 4 mg/ml collagenase in RPMI media for 2 hours at 37° C. Cells were further disaggregated by passage through an 18 G needle 5-10 times. Single cells in suspension were aspirated in the supernatant for further analysis.
as §1, with “For” for “To perform the analyses on the retroviral-induced tumors, tumor-bearing animals were euthanized, tumors were collected and 0.2 g pieces were disaggregated using 4 mg/ml collagenase in RPMI media for 2 hours at 37° C. Cells were further disaggregated by passage through an 18 G needle 5-10 times. Single cells in suspension were aspirated in the supernatant for further analysis. For”

As to `CC(C)C[C@H](NC(=O)[C@H](Cc1ccccc1)C[C@@H](O)[C@H](Cc1ccccc1)NC(=O)OC(C)(C)C)C(=O)N[C@@H](Cc1ccccc1)C(N)=O` [GSI], the “sensitivity of tumor growth to inhibition by GSI” value was “not sensitive” in assay [1] and “sensitivity to inhibition” in assay [4]. The “expression of Notch target genes” value in assay [2] and in assay [3] was “decreases expression of Notch target genes” each time.
